Data from US11192867B2, “Microbiocidal oxadiazole derivatives” (SYNGENTA PARTICIPATIONS AG, priority 2016, dated 2021).

Tests used:
[1] = tested on: Phakopsora pachyrhizi; assay: Fungicidal activity against Phakopsora pachyrhizi / soybean / leaf disc preventative (Asian soybean rust); type: in vivo; details: foliar, 200 ppm in the applied formulation, soybean leaf disks, vs untreated control, read-out: disease control
In short: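 Preventative test: compound sprayed onto soybean leaf discs one day before spore inoculation of the lower leaf face. Incubation at 20 °C and 75% rh, first 24-36 h in darkness, then a 12 h light cycle. Disease control versus untreated discs read 12-14 days after application.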

[2] = tested on: Puccinia recondita f. sp. Tritici; assay: Fungicidal activity against Puccinia recondita f. sp. Tritici / wheat / leaf disc curative (brown rust); type: in vivo; details: foliar, 24 h, 200 ppm in the applied formulation, wheat leaf segments cv. Kanzler, applied 1 day after inoculation, vs untreated control, read-out: disease control
In short: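 Compounds, prepared from DMSO solutions of at most 10 mg/ml and diluted just before spraying, are applied curatively to inoculated Kanzler wheat leaf segments. Segments are incubated at 19° C and 75% RH in a climate cabinet; disease control relative to untreated is evaluated 6 to 8 days later.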

[3] = tested on: Puccinia recondita f. sp. Tritici; assay: Fungicidal activity against Puccinia recondita f. sp. Tritici / wheat / leaf disc preventative (brown rust); type: in vivo; details: foliar, 200 ppm in the applied formulation, wheat leaf segments cv. Kanzler, inoculated 1 day after application, vs untreated control, read-out: disease control
In short: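 Preventative leaf-segment test, cv. Kanzler on agar: spray compound, inoculate with spore suspension 1 d post-application, hold at 19° C./75% rh, 12 h/12 h light cycle. Read-out = % disease control vs untreated check at 7–9 d; 200 ppm in applied formulation.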

[4] = tested on: Glomerella lagenarium (Colletotrichum lagenarium); assay: Fungicidal activity against Glomerella lagenarium (Colletotrichum lagenarium) liquid culture / cucumber / preventative (anthracnose); type: cell-based; details: Colletotrichum orbiculare, 72 h; 20 ppm in the applied formulation; liquid culture (PDB), growth inhibition measured photometrically 3 to 4 days after application; vs untreated control; read-out: disease control
In short: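 Spore-based broth assay: conidia mixed into PDB meet compound from a DMSO solution in 96-well format, incubate at 24° C., then inhibition of growth is determined by photometry 3–4 days later relative to the untreated check.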

In the case of `CON=C(C)CNC(=O)c1ccc(-c2noc(C(F)(F)F)n2)c(F)c1` [Compound 1.164, 3-fluoro-N-(2-methoxyimino-propyl)-4-[5-(trifluoromethyl)-1,2,4-oxadiazol-3-yl]benzamide], the pest or weed control at 200 ppm [1] is reported as no less than 80%, the melting point is reported as 131 to 134 °C and the pest or weed control at 200 ppm [2] is reported as no less than 80%. The pest or weed control at 200 ppm [3] was no less than 80% and the inhibition of growth at 20 ppm [4] was no less than 80%.
For `CCON=C(C)CNC(=O)c1ccc(-c2noc(C(F)(F)F)n2)cc1` [Compound 1.12, N-(2-ethoxyimino-propyl)-4-[5-(trifluoromethyl)-1,2,4-oxadiazol-3-yl]benzamide], the pest or weed control at 200 ppm [1] was no less than 80%, the melting point was 135 to 136 °C and the pest or weed control at 200 ppm [2] was no less than 80%. The pest or weed control at 200 ppm [3] was no less than 80% and the inhibition of growth at 20 ppm [4] was no less than 80%.
With `CO/N=C(/C)CNC(=O)c1ccc(-c2noc(C(F)(F)F)n2)cc1` [Compound 1.14, N-[(2Z)-2-methoxyimino-propyl]-4-[5-(trifluoromethyl)-1,2,4-oxadiazol-3-yl]benzamide] the pest or weed control at 200 ppm [1] was no less than 80%, the melting point was 151 to 152 °C and the pest or weed control at 200 ppm [2] was no less than 80%. The pest or weed control at 200 ppm [3] was no less than 80% and the inhibition of growth at 20 ppm [4] was no less than 80%.
For `CON=CCCNC(=O)c1ccc(-c2noc(C(F)(F)F)n2)c(F)c1` [Compound 1.160, 3-fluoro-N-(3-methoxyiminopropyl)-4-[5-(trifluoromethyl)-1,2,4-oxadiazol-3-yl]benzamide], the pest or weed control at 200 ppm [1] was no less than 80%, the melting point was 103 to 108 °C and the pest or weed control at 200 ppm [2] was no less than 80%. It also gave a pest or weed control at 200 ppm [3] of no less than 80% and an inhibition of growth at 20 ppm [4] of no less than 80%.
In the case of `CON=CC(C)NC(=O)c1ccc(-c2noc(C(F)(F)F)n2)c(F)c1` (centres unmarked) [Compound 1.159, 3-fluoro-N-(2-methoxyimino-1-methyl-ethyl)-4-[5-(trifluoromethyl)-1,2,4-oxadiazol-3-yl]benzamide], the pest or weed control at 200 ppm [1] is reported as no less than 80%, the melting point is reported as 119 to 121 °C and the pest or weed control at 200 ppm [2] is reported as no less than 80%. For the same compound, the pest or weed control at 200 ppm [3] was no less than 80% and the inhibition of growth at 20 ppm [4] was no less than 80%.
For `CCON=CCCNC(=O)c1ccc(-c2noc(C(F)(F)F)n2)cc1` [Compound 1.153, N-(3-ethoxyiminopropyl)-4-[5-(trifluoromethyl)-1,2,4-oxadiazol-3-yl]benzamide], the pest or weed control at 200 ppm [1] was no less than 80%, the melting point was 132 to 136 °C and the pest or weed control at 200 ppm [2] was no less than 80%. For the same compound, the pest or weed control at 200 ppm [3] was no less than 80% and the inhibition of growth at 20 ppm [4] was no less than 80%.
`CCON=C(C)CNC(=O)c1ccc(-c2noc(C(F)(F)F)n2)c(F)c1` [Compound 1.165, N-(2-ethoxyiminopropyl)-3-fluoro-4-[5-(trifluoromethyl)-1,2,4-oxadiazol-3-yl]benzamide] showed a pest or weed control at 200 ppm [1] of no less than 80%, a melting point of 120 to 124 °C and a pest or weed control at 200 ppm [2] of no less than 80%. For the same compound, the pest or weed control at 200 ppm [3] was no less than 80% and the inhibition of growth at 20 ppm [4] was no less than 80%.
